Among the data in ChEMBL document CHEMBL3608247, “Human SIRT3 tripeptidic inhibitors containing N(ε)-thioacetyl-lysine” (Bioorg Med Chem Lett, 2015) are IC50 and Ratio IC50 values, retold here.

As a reminder, the IC50 is the midpoint of a concentration-inhibition curve.

In assay [1] the target is T1, NAD-dependent protein deacetylase sirtuin-1 (Homo sapiens, UniProt Q96EB6).
T1 sequence (Q96EB6 whole entry): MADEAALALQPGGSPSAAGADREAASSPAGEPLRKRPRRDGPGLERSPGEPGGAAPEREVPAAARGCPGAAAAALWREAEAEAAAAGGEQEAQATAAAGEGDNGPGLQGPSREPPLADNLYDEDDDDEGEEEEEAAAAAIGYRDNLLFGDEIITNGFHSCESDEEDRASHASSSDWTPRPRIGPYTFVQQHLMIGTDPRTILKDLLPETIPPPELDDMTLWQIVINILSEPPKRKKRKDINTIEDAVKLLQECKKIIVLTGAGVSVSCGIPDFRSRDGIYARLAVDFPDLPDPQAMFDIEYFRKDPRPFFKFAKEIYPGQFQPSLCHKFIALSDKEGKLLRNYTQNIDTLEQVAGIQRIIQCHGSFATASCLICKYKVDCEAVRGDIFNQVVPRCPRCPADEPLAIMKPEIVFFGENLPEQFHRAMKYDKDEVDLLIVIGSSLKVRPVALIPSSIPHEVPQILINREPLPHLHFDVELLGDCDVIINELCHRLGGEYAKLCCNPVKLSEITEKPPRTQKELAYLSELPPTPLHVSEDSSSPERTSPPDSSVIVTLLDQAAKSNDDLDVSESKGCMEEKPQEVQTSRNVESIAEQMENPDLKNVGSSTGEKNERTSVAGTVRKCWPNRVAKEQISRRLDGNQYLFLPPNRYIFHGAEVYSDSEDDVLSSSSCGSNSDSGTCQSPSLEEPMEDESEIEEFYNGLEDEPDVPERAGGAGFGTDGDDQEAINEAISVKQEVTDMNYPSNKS
Nature of the assay: Inhibition of human His6 or GST-tagged SIRT1 after 10 mins by HPLC analysis in presence of beta-NAD.

Assay [2] deals with T2, NAD-dependent protein deacetylase sirtuin-2 (Homo sapiens, UniProt Q8IXJ6).
T2 sequence (Q8IXJ6 whole entry): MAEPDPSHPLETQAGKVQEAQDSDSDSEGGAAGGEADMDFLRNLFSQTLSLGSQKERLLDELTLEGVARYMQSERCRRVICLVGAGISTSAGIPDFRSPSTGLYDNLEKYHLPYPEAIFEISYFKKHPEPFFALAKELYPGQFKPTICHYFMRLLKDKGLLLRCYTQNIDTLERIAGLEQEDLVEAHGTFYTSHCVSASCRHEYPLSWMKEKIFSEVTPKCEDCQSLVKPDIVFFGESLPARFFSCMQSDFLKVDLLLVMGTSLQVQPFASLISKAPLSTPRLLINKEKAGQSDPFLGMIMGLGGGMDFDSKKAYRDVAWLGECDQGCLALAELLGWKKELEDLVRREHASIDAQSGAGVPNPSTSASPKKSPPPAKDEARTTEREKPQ
Put plainly: Inhibition of human His6-tagged SIRT2 after 12 mins by HPLC analysis in presence of beta-NAD.

Assay [3] deals with T3, NAD-dependent protein deacetylase sirtuin-3, mitochondrial (Homo sapiens, UniProt Q9NTG7).
T3 sequence (Q9NTG7 whole entry): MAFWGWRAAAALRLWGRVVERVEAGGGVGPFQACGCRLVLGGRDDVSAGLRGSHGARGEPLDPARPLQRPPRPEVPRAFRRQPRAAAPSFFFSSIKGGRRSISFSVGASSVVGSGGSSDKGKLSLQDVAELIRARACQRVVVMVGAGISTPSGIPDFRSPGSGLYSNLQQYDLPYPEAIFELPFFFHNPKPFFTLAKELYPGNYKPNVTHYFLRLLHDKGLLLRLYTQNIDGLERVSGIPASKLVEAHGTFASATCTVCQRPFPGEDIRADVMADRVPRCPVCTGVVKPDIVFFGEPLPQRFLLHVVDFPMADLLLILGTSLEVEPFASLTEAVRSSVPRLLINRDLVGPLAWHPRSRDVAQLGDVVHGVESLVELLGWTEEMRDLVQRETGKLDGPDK
Put plainly: Inhibition of human His6-tagged SIRT3 after 10 mins by HPLC analysis in presence of beta-NAD.

Assay [4] has as its target T1, NAD-dependent protein deacetylase sirtuin-1. Nature of the assay: Inhibition of human His6 or GST-tagged SIRT1 after 10 mins by Dixon plot analysis in presence of beta-NAD.
Assay [5] has as its target T2, NAD-dependent protein deacetylase sirtuin-2. Put plainly: Inhibition of human His6-tagged SIRT2 after 12 mins by Dixon plot analysis in presence of beta-NAD.
The target of assay [6] is T3, NAD-dependent protein deacetylase sirtuin-3, mitochondrial. Put plainly: Inhibition of human His6-tagged SIRT3 after 10 mins by Dixon plot analysis in presence of beta-NAD.
Assay [7] is filed under the species Homo sapiens. Put plainly: Selectivity ratio of IC50 for human His6-tagged SIRT2 to IC50 for human His6-tagged SIRT3.
The species entered for assay [8] is Homo sapiens. Put plainly: Selectivity ratio of IC50 for human His6 or GST-tagged SIRT1 to IC50 for human His6-tagged SIRT3.
The target of assay [9] is NAD-dependent protein deacylase sirtuin-6 (Homo sapiens, UniProt Q8N6T7). Nature of the assay: Inhibition of human GST-tagged SIRT6 after 12 mins by HPLC analysis in presence of beta-NAD.
Assay [10] deals with NAD-dependent protein deacylase sirtuin-5, mitochondrial (Homo sapiens, UniProt Q9NXA8). Nature of the assay: Inhibition of human GST-tagged SIRT5 after 5 mins by HPLC analysis in presence of beta-NAD.
Sequence of NAD-dependent protein deacylase sirtuin-5, mitochondrial (Q9NXA8 whole entry): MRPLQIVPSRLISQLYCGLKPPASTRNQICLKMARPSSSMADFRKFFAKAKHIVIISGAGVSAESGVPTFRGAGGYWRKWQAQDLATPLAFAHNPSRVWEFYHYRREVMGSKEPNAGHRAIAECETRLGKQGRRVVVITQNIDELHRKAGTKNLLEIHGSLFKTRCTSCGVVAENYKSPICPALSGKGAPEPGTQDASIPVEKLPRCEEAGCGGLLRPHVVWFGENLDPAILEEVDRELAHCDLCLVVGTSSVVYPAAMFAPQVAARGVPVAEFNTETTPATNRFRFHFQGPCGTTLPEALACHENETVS

Sequence of NAD-dependent protein deacylase sirtuin-6 (Q8N6T7 whole entry): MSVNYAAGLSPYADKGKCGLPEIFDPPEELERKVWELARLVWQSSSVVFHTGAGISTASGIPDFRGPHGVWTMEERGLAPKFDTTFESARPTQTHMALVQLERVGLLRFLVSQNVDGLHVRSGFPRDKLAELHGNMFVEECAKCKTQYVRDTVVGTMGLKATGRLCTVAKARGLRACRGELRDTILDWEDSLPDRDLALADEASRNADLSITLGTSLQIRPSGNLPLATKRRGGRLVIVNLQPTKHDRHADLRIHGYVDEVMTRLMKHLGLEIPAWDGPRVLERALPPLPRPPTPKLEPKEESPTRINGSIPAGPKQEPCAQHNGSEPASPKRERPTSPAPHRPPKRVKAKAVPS

Turning to `CC(=O)NCCCC[C@H](NC(=O)[C@H](CCCCNC(C)=S)NC(=O)[C@H](CNC(C)=O)NC(C)=O)C(N)=O`, the IC50 turned out to be 6.86 µM in assay [1], 7.76 µM in [2] and 1 µM in [3].

With `CC(=O)NCCCC[C@H](NC(=O)[C@H](CCCCNC(C)=S)NC(=O)[C@H](Cc1csc2ccccc12)NC(C)=O)C(N)=O`, the IC50 in assay [4] was 14.4 µM; in assay [5], 14.5 µM; in assay [6], 1.44 µM.

In the case of `CC(=O)NCCCC[C@H](NC(C)=O)C(=O)N[C@@H](CCCCNC(C)=S)C(=O)N[C@@H](CNC(C)=O)C(N)=O`, the figures for the 50% inhibitory concentration (IC50) in [1], in assay [2] and in assay [3] were 2.32 µM, 1.51 µM and 0.36 µM, respectively.

Take `CC(=O)NCCCC[C@H](NC(C)=O)C(=O)N[C@@H](CCCCNC(C)=S)C(=O)N[C@@H](Cc1ccc(-c2ccccc2)cc1)C(N)=O`: the 50% inhibitory concentration (IC50) in assay [1] amounted to 2.4 µM; in [2], 3.92 µM; in assay [3], 3.2 µM.

Take `CC(=O)NC[C@H](NC(=O)[C@H](CCCCNC(C)=S)NC(=O)[C@H](CNC(C)=O)NC(C)=O)C(N)=O`: the IC50 in assay [1] worked out at 6.6 µM; in [2], 11.9 µM; in [3], 1.8 µM. Besides, the Ratio IC50 in the assay listed under Homo sapiens [7] amounted to 6.6; in the assay listed under Homo sapiens [8] it was 3.7.

As to `CC(=O)NCCCC[C@H](NC(=O)[C@H](CCCCNC(C)=S)NC(=O)[C@H](CCc1ccccc1)NC(C)=O)C(N)=O`, the IC50 in assay [1] was 3.65 µM; in assay [2], 5.52 µM.

`CC(=O)NCCCC[C@H](NC(C)=O)C(=O)N[C@@H](CCCCNC(C)=S)C(=O)N[C@@H](CCc1ccccc1)C(N)=O`: the IC50 turned out to be 1.45 µM in assay [1] and 0.65 µM in assay [2].

Regarding `CCCC[C@H](NC(=O)[C@H](CCCCNC(C)=S)NC(=O)[C@H](CCCCNC(C)=O)NC(C)=O)C(N)=O`, the IC50 in assay [1] turned out to be 0.63 µM; in assay [2], 5.1 µM.

Turning to `CC(=O)NC[C@H](NC(=O)[C@H](CCCCNC(C)=S)NC(=O)[C@H](Cc1csc2ccccc12)NC(C)=O)C(N)=O`, the figures for the IC50 in [1], in assay [2] and in assay [3] were 9.6 µM, 8.75 µM and 1.75 µM, respectively. In addition, the Ratio IC50 in the assay filed under Homo sapiens [7] was found to be 5; in the assay listed under Homo sapiens [8], 5.5.

Regarding `CC[C@H](NC(=O)[C@H](CCCCNC(C)=S)NC(=O)[C@H](CCCCNC(C)=O)NC(C)=O)C(N)=O`, the figures for the IC50 in assay [1], in [2] and in [3] were 1.96 µM, 1.41 µM and 1.1 µM, respectively.

For `CC[C@H](NC(C)=O)C(=O)N[C@@H](CCCCNC(C)=S)C(=O)N[C@@H](CCCCNC(C)=O)C(N)=O`, the values for the IC50 in assay [1] and in [2] were 2.13 µM and 1.34 µM, respectively.

Turning to `CC(=O)NCCCC[C@H](NC(C)=O)C(=O)N[C@@H](CCCCNC(C)=S)C(=O)N[C@@H](Cc1csc2ccccc12)C(N)=O`, the values for the half-maximal inhibitory concentration (IC50) in assay [1], in [2] and in assay [3] were 1.15 µM, 2.38 µM and 1.4 µM, respectively.

With `CC(=O)NCCCC[C@H](NC(C)=O)C(=O)N[C@@H](CCCCNC(C)=S)C(=O)N[C@@H](Cc1ccc2ccccc2c1)C(N)=O`, the IC50 in [1] was determined as 0.64 µM; in assay [2], 2.26 µM; in [3] it was 2.1 µM.

Regarding `CC(=O)NC[C@H](NC(=O)[C@H](CCCCNC(C)=S)NC(=O)[C@H](Cc1ccc(-c2ccccc2)cc1)NC(C)=O)C(N)=O`, the figures for the IC50 in [1], in [2] and in assay [3] were 6.6 µM, 8.32 µM and 1.62 µM, respectively. In addition, the Ratio IC50 was determined as 5.1 in the assay filed under Homo sapiens [7] and 4.1 in the assay listed under Homo sapiens [8].

On to `CC(=O)NC[C@H](NC(=O)[C@H](CCCCNC(C)=S)NC(=O)[C@H](Cc1ccc2ccccc2c1)NC(C)=O)C(N)=O`, for which the concentration for half-maximal inhibition (IC50) in assay [9] was 307 µM; in assay [10], 2000 µM; in assay [4], 18.9 µM; in assay [5] it was 17.8 µM; in assay [6], 1.91 µM. In addition, the Ratio IC50 in the assay listed under Homo sapiens [7] turned out to be 9.3; in the assay listed under Homo sapiens [8], 9.9.

`CCC[C@H](NC(C)=O)C(=O)N[C@@H](CCCCNC(C)=S)C(=O)N[C@@H](CCCCNC(C)=O)C(N)=O`: the figures for the IC50 in assay [1], in assay [2] and in assay [3] were 10.7 µM, 7.71 µM and 2.1 µM, respectively.

In the case of `CCC[C@H](NC(=O)[C@H](CCCCNC(C)=S)NC(=O)[C@H](CCCCNC(C)=O)NC(C)=O)C(N)=O`, the IC50 in assay [1] amounted to 2.85 µM; in [2], 1.38 µM.

For `CCCC[C@H](NC(C)=O)C(=O)N[C@@H](CCCCNC(C)=S)C(=O)N[C@@H](CCCCNC(C)=O)C(N)=O`, the IC50 in assay [1] worked out at 2.78 µM; in assay [2], 0.81 µM.

Turning to `CC(=O)NCCCC[C@H](NC(=O)[C@H](CCCCNC(C)=S)NC(=O)[C@H](Cc1ccc(-c2ccccc2)cc1)NC(C)=O)C(N)=O`, the values for the concentration for half-maximal inhibition (IC50) in assay [1] and in assay [2] were 3.03 µM and 4.5 µM, respectively.

For the molecule `CC(=O)NCCCC[C@H](NC(=O)[C@H](CCCCNC(C)=S)NC(=O)[C@H](Cc1ccc2ccccc2c1)NC(C)=O)C(N)=O`, the results for the half-inhibitory concentration (IC50) in assay [4], in assay [5] and in assay [6] were 12.6 µM, 12 µM and 1.29 µM, respectively.
